Counter-ions that a name gives are not always drawn. Like-named read-outs stand apart in the source and are kept apart here.

In experiment [1] the target is His-tagged KRAS G12D protein (Homo sapiens (Human), UniProt P01116, G12D). Nature of the experiment: KRAS G12D TR-FRET Assay. The format is binding. A digest of the protocol:
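His-tagged KRAS G12D (diluted to 20 nM in pH 7.4 HEPES buffer with 10 mM MgCl2 and 10 μM GDP) was preincubated with titrated compound for 30 min at room temperature. Biotinylated KRPep-2d peptide (diluted to 20 nM) was then added for 1 h, and displacement was monitored by TR-FRET.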
(In TR-FRET formats the signal depends on donor and acceptor labels being close together.)

For experiment [2], the target named is GDP-bound KRAS protein (aa 1-169), containing both G12D and C118A amino acid substitutions (Homo sapiens (Human), UniProt P01116, C118A/G12D). Description: KRAS G12D Coupled Nucleotide Exchange Assay. The format is biochemical.
GDP-bound KRAS protein (aa 1-169), containing both G12D and C118A amino acid substitutions, sequence (P01116 other isoform, or with tags, fused parts or gaps G12D/C118A): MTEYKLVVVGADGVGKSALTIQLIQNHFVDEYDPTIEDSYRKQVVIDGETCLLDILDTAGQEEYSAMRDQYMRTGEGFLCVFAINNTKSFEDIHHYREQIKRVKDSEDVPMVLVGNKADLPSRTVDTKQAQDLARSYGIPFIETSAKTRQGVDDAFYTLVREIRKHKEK
In experiment [3] the test system is Phosphorylation of ERK1/2 in AsPC-1 cells. Nature of the experiment: Phospho-ERK1/2 MSD Assay. The class given is cell-based, human. In short, it runs like this: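 Read-out: MSD electrochemiluminescent detection of phosphorylated ERK1/2 in whole-cell lysates, fitted to a 4-parameter logistic curve for IC50. Prior to lysis, AsPC-1 cells (25,000 per well) received a 2 h compound dose-response at 37 °C.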

The subject of the next experiment is AsPC-1 cells. Description: AsPC-1 CTG Assay (CellTiter-Glo cell viability). The format is cell-based, human. As to conditions: first value of the cell, read-out: G12D/C/V Cell Proliferation CTG (72 h) AsPC-1. The protocol:
AsPC-1 and SW620 CTG Assay Protocols
AsPC-1 (human pancreatic adenocarcinoma; ATCC CRL-1682) or SW620 (human colon adenocarcinoma; ATCC CCL-227) cells were cultured in RPMI 1640 medium containing 10% fetal bovine serum and 1× penicillin/streptomycin/L-glutamine. Cells were seeded in 384-well plates at a density of 3.33E+04 cells/mL and incubated at 37° C., 5% CO2, overnight. Serially-diluted compound or DMSO was added to the cells, and plates were incubated at 37° C., 5% CO2 for 72 h. Cell viability was measured using a CellTiter-Glo® Luminescent Cell Viability Assay kit (Promega) according to the manufacturer's protocol. The luminescence signal of treated samples was normalized to DMSO control, and data were analyzed using a 4-parameter logistic model to calculate IC50 values.

[4] abbreviates: read-out: KRAS G12D Binding IC50.
Setting [5] is: read-out: KRAS G12D Coupled Exchange IC50.
Setting [6] is: 2 h, read-out: 2 h p-ERK (AsPC-1 cells), IC50.
The mark [7] stands for this setting: Homo sapiens, ASPC1, 2 h, read-out: 2 h p-ERK (AsPC-1 cells), IC50.
Where [8] appears, read: Homo sapiens, ASPC1, 72 h, AsPC-1, 72 h.
Where [9] appears, read: TR-FRET, read-out: KRAS G12D Binding.
Setting [10] is: 2 hours compound pre-incubation, read-out: KRAS G12D Coupled Exchange.
[11] abbreviates: Homo sapiens, ASPC1, 2 h, read-out: 2 h p-ERK (AsPC-1 cells).
The mark [12] stands for this setting: Homo sapiens, ASPC1, 72 h, AsPC-1 cells (G12D), 72 h.

His-tagged KRAS G12D protein, sequence (P01116 other isoform, or with tags, fused parts or gaps G12D): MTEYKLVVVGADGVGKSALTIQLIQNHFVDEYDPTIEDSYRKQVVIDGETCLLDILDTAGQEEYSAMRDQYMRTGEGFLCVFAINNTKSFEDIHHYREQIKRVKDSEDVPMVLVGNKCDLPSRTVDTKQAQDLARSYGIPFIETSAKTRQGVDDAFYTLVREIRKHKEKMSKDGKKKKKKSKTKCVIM

As for `Cc1c2ncc3c(nc(OC[C@@]45CCCN4C[C@H](F)C5)nc13)N1CCOC[C@H](C1)OC(=O)OCCCc1c(Cl)cc3[nH]ncc3c1-2` (atropisomer, axis not shown) [Example 341, (26S)-18-chloro-4-(((2R,7aS)-2-fluorotetrahydro-1H-pyrrolo[1,2-a]pyrrol-7a(5H)-yl)methoxy)-32-methyl-23,25,28-trioxa-1,3,5,9,14,15-hexaazahexacyclo[24.4.1.1~6,10~.0~2,7~.0~11,19~.0~12,16~]dotriaconta-2,4,6,8,10(32),11,13,16,18-nonaen-24-one], the IC50 in experiment [1] (setting [4]) was 10 nM; in experiment [2] (setting [5]) it was 6 nM; in experiment [3] (setting [6]), 65.5 nM; with AsPC-1 cells (AsPC-1, 72 h), 889 nM.
Consider `Cc1c2ncc3c(nc(OC[C@@]45CCCN4C[C@H](F)C5)nc13)N1CCOC[C@H](C1)OC(=O)OCCCc1c(Cl)cc3[nH]ncc3c1-2` (atropisomer, axis not shown) [Example 342, (26S)-18-chloro-4-(((2R,7aS)-2-fluorotetrahydro-1H-pyrrolo[1,2-a]pyrrol-7a(5H)-yl)methoxy)-32-methyl-23,25,28-trioxa-1,3,5,9,14,15-hexaazahexacyclo[24.4.1.1~6,10~.0~2,7~.0~11,19~.0~12,16~]dotriaconta-2,4,6,8,10(32),11,13,16,18-nonaen-24-one], for which the IC50 in experiment [1] (setting [4]) is 47 nM; in experiment [2] (setting [5]), 23 nM; in experiment [3] (setting [6]), 332 nM; with AsPC-1 cells (AsPC-1, 72 h), 3060 nM.
With `C[C@@]12CCCN(C1)c1nc(OC[C@@]34CCCN3C[C@H](F)C4)nc3c(F)c(ncc13)-c1cccc3ccc(F)c(c13)CCC(F)C(=O)N2` (mixture of isomers) [Example 11], the IC50 was 12 nM in experiment [1] (setting [4]), 8 nM in experiment [2] (setting [5]), 155 nM in experiment [3] (setting [7]) and 1050 nM in the experiment with AsPC-1 cells (setting [8]).
On to `C[C@@]12CCCN(C1)c1nc(OC[C@@]34CCCN3C[C@H](F)C4)nc3c(F)c(ccc13)-c1cc(O)cc3ccc(F)c(c13)CCC(F)C(=O)N2` (mixture of isomers) [Example 17, 2,2,2-trifluoroacetate salt], for which the IC50 in experiment [1] (setting [4]) worked out at 11 nM; in experiment [2] (setting [5]), 7 nM; in experiment [3] (setting [7]) it was 46 nM; in the experiment with AsPC-1 cells (setting [8]), 405 nM.
As to `Cc1cc2[nH]ncc2c2c1CCCCC(=O)N1CC[C@@H]3CCN(C[C@@H]31)c1nc(OC[C@@]34CCCN3C[C@H](F)C4)nc3c(F)c-2ncc13` (mixture of isomers) [Example 63], the IC50 in experiment [1] (setting [4]) came out at 9 nM; in experiment [2] (setting [5]), 2 nM; in experiment [3] (setting [7]), 59 nM; with AsPC-1 cells (setting [8]), 460 nM.
For the compound `CC12CCCN(C1)c1nc(OC[C@@]34CCCN3C[C@H](F)C4)nc3c(F)c(ncc13)-c1cccc3ccc(F)c(c13)CCOC(=O)N2` (mixture of isomers) [Example 76], the IC50 in experiment [1] (setting [4]) stood at 15 nM; in experiment [2] (setting [5]) it was 9 nM; in experiment [3] (setting [7]), 820 nM; in the experiment with AsPC-1 cells (setting [8]) it was 1710 nM.
Regarding `O=C1OC[C@H]2C[C@@H]2c2c(Cl)cc3[nH]ncc3c2-c2ncc3c(nc(OC[C@@]45CCCN4C[C@H](F)C5)nc3c2F)N2CCC[C@H](C2)O1` (mixture of isomers) [Example 113], the IC50 in experiment [1] (setting [4]) was determined as 10 nM; in experiment [2] (setting [5]), 3 nM; in experiment [3] (setting [7]), 109 nM; with AsPC-1 cells (setting [8]) it was 1180 nM.
Consider `O=C1N[C@@H]2CCCCN(C2)c2nc(OC[C@@]34CCCN3C[C@H](F)C4)nc3c(F)c(ncc23)-c2c(c(Cl)cc3[nH]ncc23)CCCC1F` (mixture of isomers) [Example 161], for which the IC50 in experiment [1] (setting [4]) turned out to be 6 nM; in experiment [2] (setting [5]), 4 nM; in experiment [3] (setting [7]), 19.8 nM; with AsPC-1 cells (setting [8]), 225 nM.
With `O=C1CCCCc2c(Cl)cc3[nH]ncc3c2-c2ncc3c(nc(OC[C@@]45CCCN4C[C@H](F)C5)nc3c2F)N2CCOCC(C1)C2` (mixture of isomers) [Example 230], the IC50 in experiment [1] (setting [4]) came to 12 nM; in experiment [2] (setting [5]), 9 nM; in experiment [3] (setting [7]), 95.1 nM; in the experiment on AsPC-1 cells (setting [8]), 174 nM.
For the compound `CC12COCCN(C1)c1nc(OC[C@@]34CCCN3C[C@H](F)C4)nc3c(F)c(ncc13)-c1c(c(Cl)cc3[nH]ncc13)CCCc1nc2no1` (mixture of isomers) [Example 379], the IC50 is 9 nM in experiment [1] (setting [9]), 3 nM in experiment [2] (setting [10]), 85.3 nM in experiment [3] (setting [11]) and 404 nM in the experiment with AsPC-1 cells (setting [12]).
Regarding `Fc1c2ncc3c(nc(OC[C@@]45CCCN4C[C@H](F)C5)nc13)N1CCCCC(C1)c1noc(n1)CCCc1c(Cl)cc3[nH]ncc3c1-2` (mixture of isomers) [Example 382], the IC50 in experiment [1] (setting [9]) was 5 nM; in experiment [2] (setting [10]) it was 3 nM; in experiment [3] (setting [11]) it was 16.8 nM; with AsPC-1 cells (setting [12]), 1480 nM.
`O=C1CCCCc2c(Cl)cc3[nH]ncc3c2-c2ncc3c(nc(OC[C@@]45CCCN4C[C@H](F)C5)nc3c2F)N2CCOCC(C2)C1O` (mixture of isomers) [Example 384]: the IC50 was 10 nM in experiment [1] (setting [9]), 6 nM in experiment [2] (setting [10]), 22.3 nM in experiment [3] (setting [11]) and 109 nM with AsPC-1 cells (setting [12]).
In the case of `CC12COCCN(C1)c1nc(OC[C@@]34CCCN3C[C@H](F)C4)nc3cc(nnc13)-c1c(c(Cl)cc3[nH]ncc13)CCCOC(=O)O2` (stereo in doubt) [Example 362, (26R)-18-chloro-4-(((2R,7aS)-2-fluorotetrahydro-1H-pyrrolo[1,2-a]pyrrol-7a(5H)-yl)methoxy)-26-methyl-23,25,28-trioxa-1,3,5,8,9,14,15-heptaazahexacyclo[24.4.1.1~6,10~.0~2,7~.0~11,19~.0~12,16~]dotriaconta-2,4,6(32),7,9,11,13,16,18-nonaen-24-one], the IC50 stood at 133 nM in experiment [3] (setting [7]) and 1450 nM in the experiment on AsPC-1 cells (setting [8]).
`Fc1c2ncc3c(nc(OC[C@@]45CCCN4C[C@H](F)C5)nc13)N1CCC[C@H](C1)c1coc(n1)CCCc1c(Cl)cc3[nH]ncc3c1-2` [Example 157, (18R)-9-chloro-31-fluoro-25-(((2R,7aS)-2-fluorotetrahydro-1H-pyrrolo[1,2-a]pyrrol-7a(5H)-yl)methoxy)-15-oxa-5,6,22,24,26,30,33-heptaazaheptacyclo[25.3.1.1~14,17~.1~18,22~.0~2,10~.0~3,7~.0~23,28~]tritriaconta-1(31),2,4,7,9,14(33),16,23,25,27,29-undecaene]: the IC50 in experiment [3] (setting [7]) turned out to be 7 nM; with AsPC-1 cells (setting [8]) it was 60 nM.
`O=C1OCCc2c(Cl)cc3[nH]ncc3c2-c2ncc3c(nc(OC[C@@]45CCCN4C[C@H](F)C5)nc3c2F)N2CCC[C@]3(C[C@@H](CO3)O1)C2` [Example 315, (1S,4S)-11-chloro-33-fluoro-25-(((2R,7aS)-2-fluorotetrahydro-1H-pyrrolo[1,2-a]pyrrol-7a(5H)-yl)methoxy)-2,5,7-trioxa-14,15,20,24,26,28-hexaazaheptacyclo[26.3.1.1~1,4~.1~19,23~.0~10,18~.0~13,17~.0~22,27~]tetratriaconta-10,12,15,17,19(33),20,22,24,26-nonaen-6-one]: the results for the IC50 (in experiment [3] (setting [7]); with AsPC-1 cells (setting [8])) were 20.8 nM and 23 nM, respectively.
With `[2H]C([2H])([2H])[C@@]12COCCN(C1)c1nc(OC[C@@]34CCCN3C[C@H](F)C4)nc3c(F)c(ncc13)-c1c(c(C)cc3[nH]ncc13)CCCOC(=O)O2` [Example 352, (26S)-32-fluoro-4-(((2R,7aS)-2-fluorotetrahydro-1H-pyrrolo[1,2-a]pyrrol-7a(5H)-yl)methoxy)-18-methyl-26-(~2~H_3_)methyl-23,25,28-trioxa-1,3,5,9,14,15-hexaazahexacyclo[24.4.1.1~6,10~.0~2,7~.0~11,19~.0~12,16~]dotriaconta-2,4,6,8,10(32),11,13,16,18-nonaen-24-one], the figures for the IC50 (in experiment [2] (setting [5]); in experiment [3] (setting [7]); with AsPC-1 cells (setting [8])) were 2 nM, 8.2 nM and 103 nM, respectively.
For `O[C@@H]1CCOCCc2c(Cl)cc3[nH]ncc3c2-c2ncc3c(nc(OC[C@@]45CCCN4C[C@H](F)C5)nc3c2F)N2CCC[C@@H]1C2` [Example 404, (16R,17R)-9-Chloro-30-fluoro-24-(((2R,7aS)-2-fluorotetrahydro-1H-pyrrolo[1,2-a]pyrrol-7a(5H)-yl)methoxy)-13-oxa-5,6,21,23,25,29-hexaazahexacyclo[24.3.1.1~17,21~.0~2,10~.0~3,7~.0~22,27~]hentriaconta-1(30),2,4,7,9,22,24,26,28-nonaen-16-ol], the IC50 in experiment [3] (setting [11]) came to 236 nM; in the experiment with AsPC-1 cells (setting [12]), 1570 nM.

Source of the values: patent publication US20240294551A1 (AMGEN INC., priority 2022, published 2024).
